For 15 molecules, IC50 and EC50 results are on record in patent US6288091A, “Antiherpes virus compounds and methods for their preparation and use” (Boehringer Ingelheim Ltd., priority 1999, dated 2001).

By IC50 is commonly meant the point on the concentration scale where inhibition reaches its midpoint. Read a low IC50 as higher potency. What is called EC50 is the concentration that produces a half-maximal response.

For assay [1], the target named is T1, HSV-1 helicase-primase (Human herpesvirus 1, UniProt P10189+P10236).
T1 construct: made in house; host or cells: Sf21 insect cells triply infected with recombinant baculoviruses (UL5, UL8, UL52)
The assay is described as follows: HSV-1 DNA-dependent ATPase assay (inhibition of HSV-1 helicase-primase). The class given is biochemical. The method in brief: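 ATP hydrolysis was measured as inorganic phosphate (malachite green/molybdate, 650 nm) after 20 min at 34°. Reaction: 3 μg/mL purified Sf21-expressed UL5/UL8/UL52 helicase-primase, 25 μM single-stranded M13 DNA hybridized to 68-mer, 4 mM ATP, pH 7.5 HEPES buffer, 3.3% DMSO. Net absorbance change with and without inhibitor gave DNA-dependent ATPase activity.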

In assay [2] the test system is HSV-1 strain F or KOS. The assay is described as follows: Inhibition of herpes simplex virus (HSV-1) replication in cell culture (BHK-21 cells, glycoprotein C ELISA). The format is cell-based. The method in brief: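 Replication readout: ELISA for HSV-1 late glycoprotein C (mAb C11, peroxidase-OPD, 450 nm) on glutaraldehyde-fixed cells. Monolayers (~50,000 cells/well) were infected with strain F or KOS (MOI 0.05 PFU/cell), then incubated 24 h at 37° with compound in 2% FBS α-MEM. EC50 derived from % inhibition.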

The test system of assay [3] is HCMV (strain AD169). Description: Inhibition of HCMV replication, plaque reduction assay (PRA, Hs-68 cells). The class given is cell-based, Human Cytomegalovirus (HCMV). As to conditions: read-out: PRA CMV EC50. As to the method:
(§1) C) Inhibition of Human Cytomegalovirus (HCMV) Replication
(§2) The effect of compounds on the replication of HCMV has been measured by using an ELISA-based assay (ELISA) and a plaque reduction assay (PRA).
Hs-68 cells (ATCC # CRL 1635) were seeded in 12-well plates at 83,000 cells/well in 1 mL of DMEM medium (Gibco Canada Inc.) supplemented with 10% fetal bovine serum (FBS, Gibco Canada Inc.). The plates were incubated for 3 days at 37° to allow the cells to reach 80-90% confluency prior to the assay.
The medium was removed from the cells by aspiration. The cells were then infected with approximately 50 PFU of HCMV (strain AD169, ATCC VR-538) in DMEM medium supplemented with 5% inactivated FBS (assay medium). The virus was allowed to adsorb to cells for 2 h at 37°. Following viral adsorption, the medium was removed from the wells by aspiration. The cells were then incubated with or without 1 mL of appropriate concentrations of test reagent in assay medium. After 4 days of incubation at 37°, the medium was exchanged with fresh medium containing test compound and 4 days later the cells were fixed with 1% aqueous formaldehyde and stained with a 2% crystal violet solution in 20% ethanol in water. Microscopic plaques were counted using a stereomicroscope. Drug effects were calculated as a percent reduction in the number of plaques in the presence of each drug concentration compared to the number observed in the absence of drug. Ganciclovir was used as a positive control in all experiments.
The EC50 values obtained according to this assay for certain thiazolyl derivatives of this invention are listed in the following tables under the heading PRA CMV.
(In a plaque reduction assay, fewer plaques than in the control indicate reduced infectivity or spread.)

Assay [4] relates to HCMV (strain AD169). The assay is described as follows: Inhibition of HCMV replication, ELISA assay (Hs-68 cells). As to conditions: read-out: ELISA CMV EC50. The class given is cell-based, Human Cytomegalovirus (HCMV). As to the method:
as §1, §2
Hs-68 cells (ATCC # CRL 1635) were seeded in 96 well microtiter plates at 10,000 cells/well in 100 μL of DMEM medium (Gibco Canada Inc.) supplemented with 10% fetal bovine serum (FBS, Gibco Canada Inc.). The plates were incubated for 3 days at 37° to allow the cells to reach 80-90% confluency prior to the assay.
The medium was removed from wells by aspiration. The cells then were infected at a multiplicity of infection (MOI) of 0.01 PFU/cell with 50 μL of HCMV (strain AD169, ATCC VR-538) in DMEM medium supplemented with 5% heat inactivated FBS (assay medium). The virus was allowed to adsorb to cells for 2 h at 37°. Following viral adsorption, the medium was removed from the wells by aspiration. The cells were washed twice with 200 μL of assay medium to remove unabsorbed virus. The cells were then incubated with or without 100 μL of appropriate concentrations of test reagent in assay medium. After 8 days of incubation at 37°, the extent of viral replication was determined by an ELISA assay which detects the late structural protein p28 of HCMV.
Eight days after infection, the medium was aspirated from the wells. Non-specific binding sites were blocked by adding 200 μL of phosphate buffered saline containing 1% (w/v) bovine serum albumin (blocking buffer) to each well and incubating the plates for 30 min at room temperature. After removal of the blocking buffer by aspiration, the cells were fixed with 100 μL of cold ethanol-acetone solution (95:5) per well. The plates were placed at -20° for 30 min. The plates were washed 4 times with phosphate buffered saline containing 0.05% (v/v) polyoxyethylene sorbitan monolaurate (Tween®). Thereafter, 100 μL of mAb UL99 (Advanced Biotechnologies Inc., #13-130-100) recognizing HCMV protein p28 was added to each wells and plates were incubated for 2 h at room temperature. The plates were washed four times with 200 μL of the above-noted phosphate buffered saline/Tween-20® solution. The cells were then incubated with 100 μL of sheep anti-mouse IgGγ horseradish peroxidase conjugated for 2 h at room temperature. The plates were then washed four times with 200 μL of above-noted phosphate buffered saline/Tween-20® solution. Thereafter, 100 μL of ortho phenylenediamine dihydrochloride (OPD, Gibco Canada Inc.) solution was added to each well and the plates were agitated on a microplate shaker for 30 min in the dark. Color development was monitored at 450 nm using a microplate spectrophotometer.
The SAS program was used to calculate the % inhibition of viral replication and to generate EC50 values.
The EC50 values obtained according to this assay method for certain thiazolylphenyl derivatives of this invention are listed in the following tables under the heading ELISA CMV.

Setting [5] is: Human alphaherpesvirus 1, BHK-21, Group 1 Table 1 entries.
Setting [6] is: Human betaherpesvirus 5, AD169, Hs68, Group 1 Table 1 entries.

T1 sequence (P10192 whole entry): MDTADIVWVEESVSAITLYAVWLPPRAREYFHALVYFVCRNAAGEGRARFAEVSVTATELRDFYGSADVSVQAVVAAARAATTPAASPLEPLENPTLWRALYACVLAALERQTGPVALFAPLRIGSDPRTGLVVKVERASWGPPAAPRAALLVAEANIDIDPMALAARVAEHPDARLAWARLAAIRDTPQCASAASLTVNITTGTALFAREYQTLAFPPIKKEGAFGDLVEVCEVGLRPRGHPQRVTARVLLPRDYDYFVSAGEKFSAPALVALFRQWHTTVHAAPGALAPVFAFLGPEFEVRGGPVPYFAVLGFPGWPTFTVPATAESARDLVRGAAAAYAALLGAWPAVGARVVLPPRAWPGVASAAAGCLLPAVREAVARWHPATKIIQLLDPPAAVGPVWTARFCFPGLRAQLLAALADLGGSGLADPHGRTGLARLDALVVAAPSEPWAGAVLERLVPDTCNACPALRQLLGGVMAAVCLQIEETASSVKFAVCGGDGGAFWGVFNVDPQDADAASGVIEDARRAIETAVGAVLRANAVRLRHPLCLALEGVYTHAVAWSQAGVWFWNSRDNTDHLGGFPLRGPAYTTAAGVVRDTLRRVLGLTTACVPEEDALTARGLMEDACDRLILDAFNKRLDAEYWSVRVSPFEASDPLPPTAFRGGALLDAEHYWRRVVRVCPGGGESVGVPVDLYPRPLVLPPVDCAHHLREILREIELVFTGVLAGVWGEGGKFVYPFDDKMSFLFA
T1 sequence (P10236 whole entry): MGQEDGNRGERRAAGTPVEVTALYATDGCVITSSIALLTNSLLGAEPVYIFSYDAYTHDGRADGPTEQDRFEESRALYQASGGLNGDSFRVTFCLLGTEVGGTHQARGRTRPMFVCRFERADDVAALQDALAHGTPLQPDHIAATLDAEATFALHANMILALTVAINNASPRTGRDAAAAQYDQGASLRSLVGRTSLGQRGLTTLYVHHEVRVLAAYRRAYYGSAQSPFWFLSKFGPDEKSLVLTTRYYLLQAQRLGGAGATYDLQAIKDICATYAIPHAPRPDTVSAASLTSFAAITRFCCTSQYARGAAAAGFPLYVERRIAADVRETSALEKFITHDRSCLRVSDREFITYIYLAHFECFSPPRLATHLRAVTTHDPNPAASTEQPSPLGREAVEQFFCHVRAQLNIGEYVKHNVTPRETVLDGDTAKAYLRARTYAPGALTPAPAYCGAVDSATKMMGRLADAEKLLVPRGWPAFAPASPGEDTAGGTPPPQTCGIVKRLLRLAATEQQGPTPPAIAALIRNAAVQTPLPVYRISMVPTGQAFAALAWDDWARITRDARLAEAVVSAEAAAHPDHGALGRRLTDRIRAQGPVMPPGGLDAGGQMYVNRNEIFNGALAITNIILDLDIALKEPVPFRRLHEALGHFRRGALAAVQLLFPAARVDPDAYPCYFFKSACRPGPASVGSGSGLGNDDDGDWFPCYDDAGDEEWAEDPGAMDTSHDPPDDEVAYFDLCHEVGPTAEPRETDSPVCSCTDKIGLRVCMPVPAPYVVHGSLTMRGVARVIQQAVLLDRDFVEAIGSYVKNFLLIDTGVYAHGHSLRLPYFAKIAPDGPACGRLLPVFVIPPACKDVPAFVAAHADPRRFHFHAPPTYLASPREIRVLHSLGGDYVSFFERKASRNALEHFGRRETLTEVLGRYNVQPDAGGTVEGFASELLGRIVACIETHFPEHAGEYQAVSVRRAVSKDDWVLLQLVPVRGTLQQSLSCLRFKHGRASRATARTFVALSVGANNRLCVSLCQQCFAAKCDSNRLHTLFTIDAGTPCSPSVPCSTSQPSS
T1 sequence (P10189 whole entry): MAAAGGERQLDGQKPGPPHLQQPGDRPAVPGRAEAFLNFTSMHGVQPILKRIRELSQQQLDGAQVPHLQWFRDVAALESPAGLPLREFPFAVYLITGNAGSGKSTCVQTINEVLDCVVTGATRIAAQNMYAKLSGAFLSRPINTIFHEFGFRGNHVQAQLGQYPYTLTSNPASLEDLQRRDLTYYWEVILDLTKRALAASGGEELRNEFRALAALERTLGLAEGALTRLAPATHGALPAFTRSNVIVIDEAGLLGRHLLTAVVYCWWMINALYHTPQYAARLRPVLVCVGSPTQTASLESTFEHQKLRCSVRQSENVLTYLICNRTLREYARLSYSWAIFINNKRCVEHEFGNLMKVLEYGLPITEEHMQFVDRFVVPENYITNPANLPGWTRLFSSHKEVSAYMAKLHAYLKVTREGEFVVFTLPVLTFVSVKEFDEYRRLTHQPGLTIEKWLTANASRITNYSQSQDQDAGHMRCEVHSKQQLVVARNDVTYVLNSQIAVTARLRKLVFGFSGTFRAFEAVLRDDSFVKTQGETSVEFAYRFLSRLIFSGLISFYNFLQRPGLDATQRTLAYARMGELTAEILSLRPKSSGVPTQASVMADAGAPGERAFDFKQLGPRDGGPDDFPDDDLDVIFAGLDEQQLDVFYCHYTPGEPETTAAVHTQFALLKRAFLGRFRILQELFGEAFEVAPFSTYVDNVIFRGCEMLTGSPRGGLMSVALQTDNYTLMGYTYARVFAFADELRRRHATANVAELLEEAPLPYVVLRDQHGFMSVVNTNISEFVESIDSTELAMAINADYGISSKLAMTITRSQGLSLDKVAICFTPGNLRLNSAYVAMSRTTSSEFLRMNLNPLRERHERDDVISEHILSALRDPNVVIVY

Take `Nc1nc(-c2ccc(NC(=O)CNC(=O)c3ccncc3)cc2)cs1` [Example 21]: the IC50 in assay [1] (Group 1 Table 1 entries) stood at 4200 nM. In addition, the EC50 in assay [2] (setting [5]) was 1300 nM; in assay [3] (setting [6]), > 71 µM.

On to `C[C@@H](c1ccccc1)N(C)CCC(=O)Nc1ccc(-c2csc(N)n2)cc1` [Example 28], for which the EC50 came to 18 µM in assay [4] (Human betaherpesvirus 5, AD169, Hs68, Group 1 Table 2 entries) and 2000 nM in assay [2] (Human alphaherpesvirus 1, BHK-21, Group 1 Table 2 entries).

In the case of `Nc1nc(-c2ccc(NC(=O)N[C@H](CO)Cc3ccccc3)cc2)cs1` [Example 28], the midpoint of inhibition in assay [1] (Group 2 Table 1 entries), the IC50, lay at 6600 nM. Further, the EC50 in assay [3] (Human betaherpesvirus 5, AD169, Hs68, Group 2 Table 1 entries) is 30 µM.

As for `Nc1nc(-c2ccc(NC(=O)CN(Cc3ccccc3)C(=O)C3CCCCCC3)cc2)cs1` [Example 37], inhibition in assay [1] (Group 1 Table 1 entries) was half-maximal at 29 nM (IC50). Besides, the EC50 in assay [2] (setting [5]) was 2 nM; in assay [3] (setting [6]), > 74 µM.

In the case of `Nc1nc(-c2ccc(NC(=O)CN(Cc3ccc(Cl)cc3)C(=O)C3CCCCC3)cc2)cs1` [Example 45], half-maximal inhibition in assay [1] (Group 1 Table 1 entries) (IC50) required 50 nM. Also, the EC50 was determined as 1 nM in assay [2] (setting [5]) and 5.5 µM in assay [3] (setting [6]).

Molecule `NCC(=O)N(CC(=O)Nc1ccc(-c2csc(N)n2)cc1)Cc1ccccc1` [Example 71] had an IC50 in assay [1] (Group 1 Table 1 entries) of 30000 nM. Also, the EC50 in assay [3] (setting [6]) is > 32 µM.

Regarding `C[C@@H](C1CCCCC1)N(CC(=O)Nc1ccc(-c2csc(N)n2)cc1)C(=O)OC(C)(C)C` [Example 108], the EC50 in assay [4] (setting [6]) is 6.8 µM; in assay [2] (setting [5]), 390 nM.

Take `CC(C)CN(CC(=O)Nc1ccc(-c2csc(N)n2)cc1)C(=O)OC(C)(C)C` [Example 112]: the EC50 in assay [4] (setting [6]) was found to be 3.2 µM; in assay [2] (setting [5]), 1200 nM.

Take `Nc1nc(CC(=O)N(CC(=O)Nc2ccc(-c3csc(N)n3)cc2)Cc2ccccc2)cs1` [Example 119]: the EC50 in assay [4] (setting [6]) is 25 µM. This molecule had an IC50 in assay [1] (Group 1 Table 1 entries) of 680 nM.

Regarding `Nc1nc(-c2ccc(NC(=O)CN(Cc3ccccc3)C(=O)COc3ccccc3)cc2)cs1` [Example 120], half-maximal inhibition in assay [1] (Group 1 Table 1 entries) (IC50) required 540 nM. In addition, in assay [3] (setting [6]), the EC50 worked out at 15 µM.

As for `CN1CCC(C(=O)N(CC(=O)Nc2ccc(-c3csc(N)n3)cc2)Cc2ccccc2)CC1` [Example 123], the EC50 in assay [4] (setting [6]) is 41 µM. Further, in assay [1] (Group 1 Table 1 entries), the IC50 was > 50000 nM.

As for `Nc1nc(-c2ccc(NC(=O)CN(CCc3ccccc3)C(=O)c3ccncc3)cc2)cs1` [Example 125], the IC50 in assay [1] (Group 1 Table 1 entries) amounted to 159 nM. Also, the EC50 in assay [3] (setting [6]) was found to be 80 µM.

`C[C@@H](c1ccccc1)N(CC(=O)Nc1ccc(-c2csc(N)n2)cc1)C(=O)c1cccnc1` [Example 134] yielded an IC50 in assay [1] (Group 1 Table 1 entries) of 260 nM. Moreover, in assay [3] (setting [6]), the EC50 was found to be 18 µM.

Molecule `C[C@H](c1ccccc1)N(CC(=O)Nc1ccc(-c2csc(N)n2)cc1)C(=O)Cc1ccccn1` [Example 136] showed an IC50 in assay [1] (Group 1 Table 1 entries) of 4200 nM. The EC50 in assay [3] (setting [6]) is 31 µM.

In turn, `C[C@H](c1ccccc1)N(CC(=O)Nc1ccc(-c2csc(N)n2)cc1)C(=O)c1ccncc1` [Example 137] showed an IC50 in assay [1] (Group 1 Table 1 entries) of 980 nM. Also, in assay [3] (setting [6]), the EC50 was 49 µM.
